# Reference: ChEMBL document CHEMBL3813668, “Design, synthesis, and biological evaluation of anti-EV71 agents” (Bioorg Med Chem Lett, 2016)
# Assays:
# [1] = tested on: Enterovirus A71; test: Antiviral activity against Enterovirus 71/Shenzhen/120F1/09 infected in human RD cells assessed as reduction in virus induced cell death after 72 hrs by CCK-8 assay; format: functional, organism-based; settings: Enterovirus A, Shenzhen/120F1/09, RD
# [2] = Metabolic stability in mouse plasma assessed as compound remaining after 2 hrs; format: ADME, cell-free; settings: read-out: Stability
# [3] = Clearance in mouse at 2 mg/kg, iv; format: ADME, organism-based; settings: in vivo
# [4] = Volume of distribution in mouse at 2 mg/kg, iv; format: ADME, organism-based; settings: in vivo
# [5] = Half life in mouse at 2 mg/kg, iv; format: ADME, organism-based; settings: in vivo
# [6] = AUC in mouse at 2 mg/kg, iv; format: ADME, organism-based; settings: in vivo
# [7] = tested on: rhinovirus B14; test: Antiviral activity against HRV-14 infected in H1HeLa cells after 2 days by XTT assay; format: functional, organism-based; settings: Rhinovirus B, H1-HeLa, 48 h
# [8] = Bioavailability in mouse at 5 mg/kg, ip; format: ADME, organism-based; settings: in vivo
# [9] = AUC in mouse at 5 mg/kg, ip; format: ADME, organism-based; settings: in vivo
# [10] = Half life in mouse at 5 mg/kg, ip; format: ADME, organism-based; settings: in vivo
# [11] = Cmax in mouse at 5 mg/kg, ip; format: ADME, organism-based; design: dose 5 mg/kg, route intraperitoneal; settings: in vivo
SMILES,remaining at 2 h [2] [%],EC50 [1] [nM],other results
Cc1cc(C(=O)N[C@H](C(=O)C[C@@H](Cc2ccc(F)cc2)C(=O)N[C@H](/C=C2\CC(C)OC2=O)C[C@@H]2CCNC2=O)C(C)C)no1 (stereo not given in full),81,220,
O=C1OCC/C1=C\[C@H](C[C@@H]1CCNC1=O)NC(=O)[C@H](Cc1ccc(F)c(F)c1)n1ccc2cc(-c3ccccc3F)[nH]c2c1=O,92,340,clearance [3]: 140 mL/min/kg; Vd [4]: 8.8 L/kg; half-life [5]: 75.6 min; AUC [6]: 0.25 µM·h
Cc1cc(C(=O)N[C@H](C(=O)C[C@@H](Cc2ccc(F)cc2)C(=O)N[C@H](/C=C/S(C)(=O)=O)C[C@@H]2CCNC2=O)C(C)C)no1,,1510,
CCOC(=O)/C=C/[C@H](C[C@@H]1CCNC1=O)NC(=O)[C@H](Cc1ccc(F)c(F)c1)n1ccc2ccn(-c3ccccn3)c2c1=O,0.9,> 100000,
Cc1cc(C(=O)N[C@H](C(=O)C[C@@H](Cc2ccc(F)cc2)C(=O)N[C@H](/C=C/C(=O)OCc2ccccc2)C[C@@H]2CCNC2=O)C(C)C)no1,2.4,140,
Cc1cc(C(=O)N[C@H](C(=O)C[C@@H](Cc2ccc(F)cc2)C(=O)N[C@H](/C=C/C(=O)OC2CCC2)C[C@@H]2CCNC2=O)C(C)C)no1,5.3,260,
CCOC(=O)/C=C/[C@H](C[C@@H]1CCNC1=O)NC(=O)[C@H](Cc1ccc(F)c(F)c1)n1ccc2cc[nH]c2c1=O,1,3560,
CCOC(=O)/C=C/[C@H](C[C@@H]1CCNC1=O)NC(=O)[C@H](Cc1ccccc1)n1ccc2cc[nH]c2c1=O,,,EC50 [7]: 1270 nM
Cc1cc(C(=O)N[C@H](C(=O)C[C@@H](Cc2ccc(F)cc2)C(=O)N[C@H](/C=C/S(=O)(=O)c2nccs2)C[C@@H]2CCNC2=O)C(C)C)no1,24,520,
Cc1cc(C(=O)N[C@H](C(=O)C[C@@H](Cc2ccc(F)cc2)C(=O)N[C@H](/C=C/C(=O)N2CCOCC2)C[C@@H]2CCNC2=O)C(C)C)no1,88,8920,
CCOC(=O)/C=C/[C@H](C[C@@H]1CCNC1=O)NC(=O)[C@H](Cc1ccc(F)c(F)c1)n1ccc2ccn(C)c2c1=O,,> 100000,
CCOC(=O)/C=C/[C@H](C[C@@H]1CCNC1=O)NC(=O)[C@@H](CC(=O)[C@@H](NC(=O)c1cc(C)on1)C(C)C)Cc1ccc(F)cc1 [RUPINTRIVIR],2.7,9,
CCOC(=O)/C=C/[C@H](C[C@@H]1CCNC1=O)NC(=O)[C@H](Cc1ccc(F)c(F)c1)n1ccc2ccn(Cc3ccccc3)c2c1=O,,> 100000,
CCOC(=O)/C=C/[C@H](C[C@@H]1CCNC1=O)NC(=O)[C@H](Cc1ccc(F)c(F)c1)n1ccc2ccn(CC3CC3)c2c1=O,,> 100000,

# Continued, in another order:
remaining at 2 h [2] [%],SMILES,EC50 [1] [nM],other results
26,Cc1cc(C(=O)N[C@H](C(=O)C[C@@H](Cc2ccc(F)cc2)C(=O)N[C@H](/C=C/C(=O)N2CCc3cc(Cl)ccc32)C[C@@H]2CCNC2=O)C(C)C)no1,180,
0.3,CCOC(=O)/C=C/[C@H](C[C@@H]1CCNC1=O)NC(=O)[C@H](Cc1ccc(F)c(F)c1)n1ccc2cc(Br)[nH]c2c1=O,500,
77,O=C1OCC/C1=C\[C@H](C[C@@H]1CCNC1=O)NC(=O)[C@H](Cc1ccc(F)c(F)c1)n1ccc2cc(Br)[nH]c2c1=O,2010,
0,CCOC(=O)/C=C/[C@H](C[C@@H]1CCNC1=O)NC(=O)[C@H](Cc1ccc(F)c(F)c1)n1ccc2cc(-c3ccccc3F)[nH]c2c1=O,1020,
82,Cc1cc(C(=O)N[C@H](C(=O)C[C@@H](Cc2ccc(F)cc2)C(=O)N[C@H](/C=C/C(=O)N2CCCC2)C[C@@H]2CCNC2=O)C(C)C)no1,12000,
54,Cc1cc(C(=O)N[C@H](C(=O)C[C@@H](Cc2ccc(F)cc2)C(=O)N[C@H](/C=C/C(=O)N2CCC(F)(F)C2)C[C@@H]2CCNC2=O)C(C)C)no1,760,
88,Cc1cc(C(=O)N[C@H](C(=O)C[C@@H](Cc2ccc(F)cc2)C(=O)N[C@H](/C=C2\CCOC2=O)C[C@@H]2CCNC2=O)C(C)C)no1,28,clearance [3]: 130 mL/min/kg; bioavailability [8]: 115%; Vd [4]: 1.6 L/kg; AUC [9]: 1.28 µM·h; half-life [10]: 10.8 min; half-life [5]: 12 min; AUC [6]: 0.444 µM·h; Cmax [11]: 2570 nM
80,O=C1OCC/C1=C\[C@H](C[C@@H]1CCNC1=O)NC(=O)[C@H](Cc1ccc(F)c(F)c1)n1ccc2cc[nH]c2c1=O,13100,
63,Cc1cc(C(=O)N[C@H](C(=O)C[C@@H](Cc2ccc(F)cc2)C(=O)N[C@H](/C=C/C(=O)N2CCC(F)(F)CC2)C[C@@H]2CCNC2=O)C(C)C)no1,1240,
1.4,CCOC(=O)/C=C/[C@H](C[C@@H]1CCNC1=O)NC(=O)[C@H](Cc1ccc(F)cc1)n1cccc(NC(=O)c2cc(C)on2)c1=O,,EC50 [7]: 2 nM
